For 12 compounds, inhibition and IC50 results are on record in the Kinase Knowledgebase extract (Sharma et al. 2016).

The target of one assay is EGFR (mice) (UniProt P00533). The settings on record: swiss 3t3 fibroblast, dose or concentration not given here.
Assay [1] addresses EGFR (human) (UniProt P00533). The settings on record: sk-br-3.
For assay [2], the target named is EGFR (human) (UniProt P00533). Particulars: a431.
The target in assay [3] is EGFR (human) (UniProt P00533). Particulars: mda468.

pIC50: −log10 of the molar value.

EGFR (human), sequence (P00533 whole entry, looked up): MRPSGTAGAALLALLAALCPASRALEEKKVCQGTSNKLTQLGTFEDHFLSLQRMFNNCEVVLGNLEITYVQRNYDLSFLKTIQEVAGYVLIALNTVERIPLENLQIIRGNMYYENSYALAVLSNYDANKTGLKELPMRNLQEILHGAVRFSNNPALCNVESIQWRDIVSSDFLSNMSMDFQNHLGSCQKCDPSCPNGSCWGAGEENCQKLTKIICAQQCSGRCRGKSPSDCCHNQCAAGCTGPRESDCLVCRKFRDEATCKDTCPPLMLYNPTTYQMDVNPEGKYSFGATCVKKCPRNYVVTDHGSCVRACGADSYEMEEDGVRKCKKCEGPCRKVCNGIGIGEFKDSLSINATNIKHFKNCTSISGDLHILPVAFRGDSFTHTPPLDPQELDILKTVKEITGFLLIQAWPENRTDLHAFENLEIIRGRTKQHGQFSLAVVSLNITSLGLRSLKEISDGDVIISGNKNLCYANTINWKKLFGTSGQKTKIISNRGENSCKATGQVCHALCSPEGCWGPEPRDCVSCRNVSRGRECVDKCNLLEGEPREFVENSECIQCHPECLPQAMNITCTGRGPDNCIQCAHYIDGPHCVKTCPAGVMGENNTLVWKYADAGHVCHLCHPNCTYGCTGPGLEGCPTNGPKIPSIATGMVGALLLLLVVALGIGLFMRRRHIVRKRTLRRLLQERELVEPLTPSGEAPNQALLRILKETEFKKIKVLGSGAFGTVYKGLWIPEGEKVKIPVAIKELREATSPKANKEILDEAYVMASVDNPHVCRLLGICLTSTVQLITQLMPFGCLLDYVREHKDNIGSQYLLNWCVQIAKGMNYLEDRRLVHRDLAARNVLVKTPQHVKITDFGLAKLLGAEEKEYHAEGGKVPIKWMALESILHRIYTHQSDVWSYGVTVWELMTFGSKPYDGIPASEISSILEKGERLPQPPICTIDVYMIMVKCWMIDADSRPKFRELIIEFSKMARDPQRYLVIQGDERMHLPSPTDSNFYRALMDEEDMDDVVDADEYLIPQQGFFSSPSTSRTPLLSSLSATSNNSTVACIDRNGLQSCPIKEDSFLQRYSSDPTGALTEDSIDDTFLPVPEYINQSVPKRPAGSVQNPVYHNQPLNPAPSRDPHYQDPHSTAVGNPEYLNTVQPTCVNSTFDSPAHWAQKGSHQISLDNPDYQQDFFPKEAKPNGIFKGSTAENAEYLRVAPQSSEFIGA
EGFR (mice), sequence (P00533 whole entry, looked up): as above

Turning to `Nc1cc2ncnc(NCc3ccccc3)c2cn1`, the inhibition (commonly the drop in the measured response relative to a control, in per cent) with EGFR (mice) was found to be 5%.

For the compound `Nc1cc2ncnc(Nc3cccc([N+](=O)[O-])c3)c2cn1`, at EGFR (human) [1], the negative logarithm of the IC50 (pIC50) (in general, the IC50 on a negative log10 scale, so that one unit is a factor of ten) is 5.82.

Take `NNc1ncc2c(NCc3ccccc3)ncnc2n1`: the pIC50 against EGFR (human) [1] is above 8.00; on EGFR (human) [2], 6.91.

With `Nc1ccc2ncnc(Nc3cccc(Br)c3)c2n1`, the pIC50 at EGFR (human) [1] is 5.58.

In turn, `CNc1ccc2ncnc(Nc3cccc(Br)c3)c2n1` had a pIC50 against EGFR (human) [1] of 7.00.

As to `CN(C)c1ccc2ncnc(Nc3cccc(Br)c3)c2n1`, the pIC50 against EGFR (human) [1] is 7.15.

For `CNc1cc2c(Nc3cccc(Br)c3)ncnc2cn1`, the results for the pIC50 on EGFR (human) [3] and on EGFR (human) [1] were 5.52 and above 8.00, respectively.

On EGFR (human) [1], `Fc1ccc2ncnc(Nc3cccc(Br)c3)c2n1` had a pIC50 below 5.00.

For `c1ccc(CNc2ncnc3[nH]ccc23)cc1`, the pIC50 on EGFR (human) [1] and at EGFR (human) [2] was below 6.00 each time.

For `Nc1cc2ncnc(Nc3cccc(Br)c3)c2cn1`, at EGFR (human) [1], the pIC50 was 6.10.

The compound `COc1cc2c(Nc3cccc(Br)c3)ncnc2cn1` showed a pIC50 against EGFR (human) [1] above 8.00.

`CN(C)c1cc2c(Nc3cccc(Br)c3)ncnc2cn1`: the pIC50 against EGFR (human) [3] is 4.92; against EGFR (human) [1] it was 7.41.
